Assay results as given in PubChem BioAssay AID330 (DTP/NCI, 2004).
“And” between values parts separate entries of the source, which are not always exact repeats. Equal values may be shown once. Toxic doses and inconclusive results are not listed. Rule for the calls: active = survival T/C of 150% or more; inactive = T/C below 125% in these data.

System: P388 leukemia ip, CD2F1 mice, survival T/C
Assay: NCI In Vivo Anticancer Drug Screen. Data for tumor model P388 Leukemia (intraperitoneal) in CD2F1 (CDF1) mice
Conditions: endpoint: median survival time, higher = longer survival
Outline: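 Mice carrying the transplanted tumor received test compound or vehicle. Survival was recorded in each group, and the value is the treated-group measurement divided by that of the vehicle-treated control group.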

[1] = dose: 50.0 mg/kg/injection, schedule: Q01DX009 (ip), vehicle: saline with Tween-80
[2] = dose: 50.0 mg/kg/injection, schedule: Q01DX009 (ip), vehicle: Klucel (hydroxypropylcellulose) (HPC)
[3] = dose: 100.0 mg/kg/injection, schedule: Q01DX009 (ip), vehicle: Klucel (hydroxypropylcellulose) (HPC)
[4] = dose: 200.0 mg/kg/injection, schedule: Q01DX009 (ip), vehicle: Klucel (hydroxypropylcellulose) (HPC)
[5] = dose: 60.0 mg/kg/injection, schedule: Q01DX005 (ip), vehicle: saline with Tween-80
[6] = dose: 120.0 mg/kg/injection, schedule: Q01DX005 (ip), vehicle: saline with Tween-80
[7] = dose: 240.0 mg/kg/injection, schedule: Q01DX005 (ip), vehicle: saline with Tween-80

Measured: T/C

O=C(O)CCCCCCCCCc1ccccc1
inactive: dose: 12.5 mg/kg/injection, schedule: Q01DX009 (ip), vehicle: saline with Tween-80 100 % of control | dose: 25.0 mg/kg/injection, schedule: Q01DX009 (ip), vehicle: saline with Tween-80 97 % of control | [1] 95 % of control | dose: 50.0 mg/kg/injection, schedule: Q01DX009 (ip), vehicle: saline 97 % of control

C=C(C)C(Br)=C(C)C
inactive: dose: 12.5 mg/kg/injection, schedule: Q01DX001 (ip), vehicle: saline with Tween-80 108 % of control | dose: 25.0 mg/kg/injection, schedule: Q01DX001 (ip), vehicle: saline with Tween-80 107 % of control | dose: 50.0 mg/kg/injection, schedule: Q01DX001 (ip), vehicle: saline with Tween-80 99 % of control

CC1=NN(C2=NS(=O)(=O)c3ccccc3N2c2ccccc2)C(=O)C1
inactive: dose: 100.0 mg/kg/injection, schedule: Q04DX002 (ip), vehicle: saline with Tween-80 108 % of control | dose: 200.0 mg/kg/injection, schedule: Q04DX002 (ip), vehicle: saline with Tween-80 106 % of control | dose: 400.0 mg/kg/injection, schedule: Q04DX002 (ip), vehicle: saline with Tween-80 97 % of control

CC(C)=Cc1cc(-c2cc(C=C(C)C)on2)no1
inactive: dose: 60.0 mg/kg/injection, schedule: Q01DX005 (ip), vehicle: saline 100 % of control | dose: 120.0 mg/kg/injection, schedule: Q01DX005 (ip), vehicle: saline 104 % of control | dose: 240.0 mg/kg/injection, schedule: Q01DX005 (ip), vehicle: saline 100 % of control

N[C@@H](Cc1c[nH]c2ccccc12)C(=O)Nc1nncs1
inactive: dose: 18.75 mg/kg/injection, schedule: Q01DX005 (ip), vehicle: saline 100 % of control and 102 % of control | dose: 37.5 mg/kg/injection, schedule: Q01DX005 (ip), vehicle: saline 98 % of control and 101 % of control | dose: 50.0 mg/kg/injection, schedule: Q04DX002 (ip), vehicle: suspension in saline 100 % of control | dose: 75.0 mg/kg/injection, schedule: Q01DX005 (ip), vehicle: saline 100 % of control and 101 % of control | dose: 100.0 mg/kg/injection, schedule: Q04DX002 (ip), vehicle: suspension in saline 100 % of control | dose: 150.0 mg/kg/injection, schedule: Q01DX005 (ip), vehicle: saline 99 % of control and 100 % of control | dose: 200.0 mg/kg/injection, schedule: Q04DX002 (ip), vehicle: suspension in saline 99 % of control | dose: 300.0 mg/kg/injection, schedule: Q01DX005 (ip), vehicle: saline 106 % of control and 109 % of control
active: dose: 600.0 mg/kg/injection, schedule: Q04DX002 (ip), vehicle: saline 171 % of control | dose: 800.0 mg/kg/injection, schedule: Q04DX002 (ip), vehicle: suspension in saline 151 % of control

CCN(CC)Cc1cc(N=Nc2ccc(-c3ccc(N)c(OC)c3)cc2OC)c2ccccc2c1O
inactive: [2] 92 % of control | [3] 99 % of control | [4] 93 % of control

O=[N+]([O-])c1ccc(S(=O)(=O)NCCSSCCNS(=O)(=O)c2ccc([N+](=O)[O-])cc2)cc1
inactive: [2] 90 % of control | [3] 93 % of control | [4] 90 % of control

CCOC(=O)CCC(NC(=O)c1ccc(N(C)CCC(C)=O)cc1)C(=O)OCC (configuration not stated)
inactive: [1] 111 % of control | dose: 100.0 mg/kg/injection, schedule: Q01DX009 (ip), vehicle: saline with Tween-80 111 % of control | dose: 200.0 mg/kg/injection, schedule: Q01DX009 (ip), vehicle: saline with Tween-80 102 % of control | dose: 400.0 mg/kg/injection, schedule: Q01DX009 (ip), vehicle: saline with Tween-80 97 % of control

O=C(CNSc1ccc([N+](=O)[O-])cc1[N+](=O)[O-])OCc1ccccc1
inactive: dose: 50.0 mg/kg/injection, schedule: Q01DX005 (ip), vehicle: saline + Tween-80 + alcohol 100 % of control | dose: 100.0 mg/kg/injection, schedule: Q01DX005 (ip), vehicle: saline + Tween-80 + alcohol 106 % of control | dose: 200.0 mg/kg/injection, schedule: Q01DX005 (ip), vehicle: saline + Tween-80 + alcohol 97 % of control

Nc1nnc2nc(CC(=O)c3cccc([N+](=O)[O-])c3)c(CC(=O)c3cccc([N+](=O)[O-])c3)nn12
inactive: [5] 96 % of control | [6] 100 % of control | [7] 100 % of control

CCOC(=O)c1c(Br)c2c3ccccc3c3ccccc3n2c1C
inactive: [5] 100 % of control | [6] 111 % of control | [7] 100 % of control
